Source: US11925645B2, “Enhanced caffeinated beverage composition” (Ortho-Nutra, LLC, priority 2013, dated 2024)

Assays:
[1] = 7-day open-label repeated dose study of TC (N=6): VAS subjective measures; format: in vivo, human; conditions: 200 mg dose of theacrine over 7 days
Protocol: A subset of 6 subjects underwent a separate 7-day, open-label, repeated dose study comparing 100 mg, 200 mg and 400 mg of TC. The experiment was a randomized, placebo-controlled, double-blind, within-subject crossover clinical trial (for N=15 study). A further subset study was open-label, sub-acute (7-day), repetitive dosing trial (for N=6 subset). Six (6) subjects provided written and dated informed consent to participate in the 7-day repetitive dosing study between Dec. 15, 2012 and Feb. 21, 2013. A separate cohort of fifteen (15) subjects provided written and dated informed consent for the acute dose, placebo-controlled, crossover clinical trial. All subjects were in good health as determined by physical examination and medical history, between the ages of 18 and 45 (inclusive). […] Subjects were willing and able to comply with the experimental and supplement protocol. Physical activity levels and health history were determined using standardized questionnaires. Heart rate and blood pressure were measured using an Omron HEM-780. Standing height was determined using a wall-mounted stadiometer. […] Medical Scale. A 100 mm anchored VAS questionnaire for energy, fatigue, and concentration was distributed at each acute lab session; additional VAS questionnaires were distributed for the daily assessment over a 6-hour period during the 7-day subset study. Quest Diagnostics (Pittsburgh, Pa.) was utilized to transport and analyze all blood samples.

[2] = Acute randomized placebo-controlled crossover trial of 200 mg TeaCrine: anchored VAS questionnaires; format: in vivo, human
Protocol: In order to examine the beneficial experiential effects and psychometric properties of theacrine supplementation in healthy subjects, explore optimal dosing and potential cumulative effects in a healthy human cohort with a 7-day, sub-acute repetitive dosing protocol, and acquire preliminary data on various biomarkers of safety and tolerability, an experiment was performed. […] A subset of 6 subjects underwent a separate 7-day, open-label, repeated dose study comparing 100 mg, 200 mg and 400 mg of TC. The experiment was a randomized, placebo-controlled, double-blind, within-subject crossover clinical trial (for N=15 study). A further subset study was open-label, sub-acute (7-day), repetitive dosing trial (for N=6 subset). Six (6) subjects provided written and dated informed consent to participate in the 7-day repetitive dosing study between Dec. 15, 2012 and Feb. 21, 2013. A separate cohort of fifteen (15) subjects provided written and dated informed consent for the acute dose, placebo-controlled, crossover clinical trial. All subjects were in good health as determined by physical examination and medical history, between the ages of 18 and 45 (inclusive). […] Subjects were willing and able to comply with the experimental and supplement protocol. […] Physical activity levels and health history were determined using standardized questionnaires. Heart rate and blood pressure were measured using an Omron HEM-780. Standing height was determined using a wall-mounted stadiometer. […] Medical Scale. A 100 mm anchored VAS questionnaire for energy, fatigue, and concentration was distributed at each acute lab session; additional VAS questionnaires were distributed for the daily assessment over a 6-hour period during the 7-day subset study. Quest Diagnostics (Pittsburgh, Pa.) was utilized to transport and analyze all blood samples. […] Statistical Analyses for Example 1. Descriptive statistics (mean, median, SD, 95% CIs) were used to quantify subjects physical characteristics. RM ANOVA, as well analyses of co-variance (ANCOVA), using baseline scores as the co-variate (respectively), were used to analyze between trial differences. Alpha was set to 0.05 (P≤0.05) for statistical significance, and <0.10 for trends. Effect sizes were also calculated. Upon arrival for the first testing session, subjects were randomly assigned to receive their respective supplement/placebo. Each subject ingested the sponsor recommended dosage of their respective supplement (1 capsule prior to schedule of assessments). Supplements were prepared in capsule form and packaged in coded generic containers for double-blind administration.

[3] = Theacrine-caffeine interaction study: heart rate, blood pressure, rate pressure product, tolerability; conditions: at the doses tested, administered alone or in combination
Text: Study Design and Procedures. […] Theacrine, administered as iTeaCrine.®, was provided by Compound Solutions (Carlsbad, Calif). […] Treatment sequence was randomized using a 4×4 Latin square. There was an approximate 1-week washout period between treatments for all subjects.
Test Visit Procedures. […] A catheter was inserted into the forearm vein for blood sampling. Duplicate measurements of resting heart rate and blood pressure were taken pre-dose and prior to each timed blood sample. In addition, respiratory rate was counted in one minute and body temperature was measured using an ear scanning thermometer (dual readings taken at each time).
Differences between treatment group values were determined for systolic blood pressure (SBP), diastolic blood pressure (DBP), rate pressure product, and heart rate. Parametric data were analyzed by paired Student's t tests of mean differences in values between treatment groups. Statistical significance was defined a priori as a 2-sided or <0.05.

Structure (SMILES): Cn1c(=O)c2c(n(C)c1=O)n(C)c(=O)n2C [Theacrine, 1,3,7,9-tetramethylpurine-2,6,8-trione]
- anxiety (FIG. 6) [1]: decreased substantially
- concentration (FIG. 7) [1]: increased substantially
- energy (FIG. 7) [1]: increased substantially
- fatigue (FIG. 6) [1]: decreased substantially
- libido (FIG. 6) [1]: increased substantially
- motivation to exercise (FIG. 7) [1]: increased substantially
- concentration (VAS) ([2]; 200 mg dose of TC, single dose, trend, vs. PLA −[…], P=0.07): +2.4%
- fatigue (VAS) ([2]; 200 mg dose of TC, single dose, vs. PLA +5.8%, P=0.04): −6.7%
- energy (VAS) ([2]; 200 mg dose of TC, single dose, vs. PLA −5.7%, P=0.049): +8.6%
- perceived energy on VAS (FIG. 2) ([2]; 1, 2 and 3 hours after administration, vs placebo): higher levels of energy
- perceived fatigue on VAS (FIG. 3) ([2]; 60 minutes after administration, vs placebo): lower levels of fatigue
- effect on baseline hemodynamic parameters, e.g. heart rate and blood pressure [3]: no effect
